Measurements from US8145430B2, “Predictive scoring function for estimating binding affinity” (Schrodinger, LLC, priority 2005, dated 2012).
Where two headings read alike, the source gives them in different places.

What was measured:
[1] = test system: protein-ligand complexes in the PDB; details: experimental binding affinity, cited from earlier work
Glur2 receptors = details: series of Glur2 receptors; cited from earlier work
aldose reductase = aldose reductase (Homo sapiens, UniProt P15121); details: lef3 structure of aldose reductase; cited from earlier work
Streptavidin = Streptavidin (Streptomyces avidinii, UniProt P22629); experiment: Calculated versus experimental binding affinity, streptavidin and biotin (pdb 1stp), docked structure; details: using a docked structure
Excerpt: FIG. 8 illustrates Streptavidin in biotin (pdb 1stp). Both special hydrogen bonds in this complex, and hydrophobic enclosure of the hydrogen bonding region, are shown.
Here three correlated hydrogen bonds occur in a hydrophobically enclosed region. Up to the present time, no empirical scoring function has explained the exceptionally large binding affinity of streptavidin in biotin. Once the triple, enclosed hydrogen bonding motif is recognized and assigned an appropriate score, the deviation between calculated and experimental binding affinity, using a docked structure, is only 1.5 kcal/mole.

[2] = column beside SP Score (repeat)

Streptavidin, sequence (P22629 25-183): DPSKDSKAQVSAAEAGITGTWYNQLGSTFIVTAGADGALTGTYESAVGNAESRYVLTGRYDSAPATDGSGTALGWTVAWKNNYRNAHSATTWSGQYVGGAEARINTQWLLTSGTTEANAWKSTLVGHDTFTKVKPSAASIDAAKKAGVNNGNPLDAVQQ

Row | Compound | ΔG_exp [1, 2] [kcal/mol] | ΔG_exp ([1]; column beside XP Score) [kcal/mol] | ΔG (experimental binding energies) (Glur2 receptors) [kcal/mol] | binding affinity experimentally (aldose reductase) | deviation between calculated and experimental binding affinity (Streptavidin) [kcal/mol]
1 | CC12CCC(CC1=O)C2(C)C (centres unmarked) [2cpp] | -8.3 | -8.3 |  |  | 
2 | N[C@@H](CCC(=O)O)C(=O)O [Ligand 1ftj] |  |  | 8.5 |  | 
3 | CNC(=O)C(F)(F)C(O)(O)[C@H](CC(C)C)NC(=O)[C@@H](NC(=O)[C@@H](NC(=O)CC(C)C)C(C)C)C(C)C [1apv] | -11.3 | -11.3 |  |  | 
4 | CC(=O)N[C@H](C(=O)N[C@@H](Cc1ccccc1)[C@@H](O)CN(CC1CCCCC1)NC(=O)[C@@H](NC(C)=O)C(C)C)C(C)C [1hih] | -11.3 | -11.3 |  |  | 
5 | NC(=O)[C@@H]1C[C@]2(NC(=O)NC2=O)c2cc(F)ccc2O1 [fiderestat] |  |  |  | low nanomolar | 
6 | CN(Cc1cnc2nc(N)nc(N)c2n1)c1ccc(C(=O)N[C@@H](CCC(=O)O)C(=O)O)cc1 [4dfr] | -13.2 | -13.2 |  |  | 
7 | Nc1c2c(nc3ccccc13)CCCC2 [1acj] | -10 | -10 |  |  | 
8 | CC(C)C[C@H](N[C@@H](CCc1ccccc1)C(=O)O)C(=O)N[C@@H](Cc1c[nH]c2ccccc12)C(=O)O [1tmn] | -10 | -10 |  |  | 
9 | NCC1CCCCC1 [1tng] | -4 | -4 |  |  | 
10 | CC1(C)S[C@H]([C@H](NC(=O)Cc2ccccc2)C(=O)NCc2ccccc2)N[C@H]1C(=O)N[C@@H](CO)Cc1ccccc1 [1htf] | -11.1 | -11.1 |  |  | 
11 | N[C@@H](Cn1cc(F)c(=O)[nH]c1=O)C(=O)O [Ligand 1mqi] |  |  | 11.9 |  | 
12 | Cc1o[nH]c(=O)c1C[C@H](N)C(=O)O [Ligand 1ftm] |  |  | 8.8 |  | 
13 | O=C(O)[C@@H](O)Cc1ccccc1 [2ctc] | -5.3 | -5.3 |  |  | 
14 | CC(=O)N[C@H]1[C@H]([C@H](O)[C@H](O)CO)OC(C(=O)O)=C[C@@H]1O [1nnb] | -7.2 | -7.2 |  |  | 
15 | COC(=O)[C@H](Cc1ccccc1)OP(=O)(O)[C@H](CC(C)C)NC(=O)[C@@H](NC(=O)[C@@H](NC(=O)CC(C)C)C(C)C)C(C)C [1ppl] | -11.5 | -11.5 |  |  | 
16 | N=C(N)c1ccccc1 [1bra] | -2.5 | -2.5 |  |  | 
17 | CC(C)C[C@H](N)C(=O)NO [4tln] | -5.1 | -5.1 |  |  | 
18 | Cc1ccc(S(=O)(=O)N[C@@H](Cc2cccc(C(=N)N)c2)C(=O)N2CCCCC2)cc1 [1pph] | -8.5 | -8.5 |  |  | 
19 | O=c1[nH]c2cc([N+](=O)[O-])c([N+](=O)[O-])cc2[nH]c1=O [Ligand 1ftl] |  |  | 8.3 |  | 
20 | CC(C)c1ccc(NC(=O)[C@H](Cc2ccccc2)NC(=O)[C@H](CCCCN)NC(=O)C(F)(F)F)cc1 [1elc] | -9.8 | -9.8 |  |  | 
21 | O=C(N[C@H]1c2ccccc2C[C@H]1O)[C@H](Cc1ccccc1)CC(O)C[C@@H](Cc1ccccc1)C(=O)N[C@H]1c2ccccc2C[C@H]1O [4phv] | -12.5 | -12.5 |  |  | 
22 | C[C@H]1O[C@H](O)[C@H](O)[C@@H](O)[C@H]1O [7abp] | -8.1 | -8.1 |  |  | 
23 | O=C(O)[C@H](O)[C@@H](O)[C@H](O)[C@H](O)COP(=O)(O)O [1pgp] | -7.8 | -7.8 |  |  | 
24 | O=C(O)CCCC[C@@H]1SC[C@@H]2NC(=O)N[C@@H]21 [biotin] |  |  |  |  | 1.5
25 | NCCCCc1ccccc1 [1tni] | -2.3 | -2.3 |  |  | 
